Results taken from patent publication US11464770B2, “Anticancer pharmaceutical composition” (NATIONAL CANCER CENTER, priority 2016, dated 2022).
Read-outs that look alike come from different tables or passages of the source.

Columns and labels:
[1] = test system: prostate cancer cell lines (e.g. DU145/TXR); test: Cell based assay, cell viability (CellTiter-Glo), prostate cancer cell lines; settings: Homo sapiens, 72 hours treatment, final concentration 0 to 2 μM
Outline: (§1)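 Following a 24 h pre-culture in plates, cells receive test compound (final 0 to 2 μM) for 72 hours. Luminescent quantitation of cellular ATP gives viability.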

[2] = test system: blood cancer cell lines (e.g. HL-60, Jurkat, Raji, Ramos, Daudi, MOLT-4); test: Cell based assay, cell viability (CellTiter-Glo), blood cancer cell lines; settings: Homo sapiens
Outline: as §1

[3] = test system: brain cancer cell lines; test: Cell based assay, cell viability (CellTiter-Glo), brain cancer cell lines; settings: Homo sapiens
[4] = test system: RT4: human urinary bladder transitional cell papilloma; test: Cell based assay, cytotoxicity in RT4 papilloma cells (selectivity); settings: Homo sapiens, RT-4; RT4 cells
[5] = CWR22 cells, read-out: IC50, prostate cancer cell line CWR22
[6] = DU-145, DU145/TXR cells, read-out: IC50, prostate cancer cell line DU145/TXR
[7] = DU-145, DU145 cells, read-out: IC50, prostate cancer cell line DU145
[8] = LNcap cells, read-out: IC50, prostate cancer cell line LNcap
[9] = MV4-11, blood cancer cell line MV-4-11, 72 hours, read-out: IC50, MV-4-11
[10] = blood cancer cell line Daudi, 72 hours, read-out: IC50, Daudi
[11] = blood cancer cell line HL-60, 72 hours, read-out: IC50, HL-60
[12] = blood cancer cell line Jurkat, 72 hours, read-out: IC50, Jurkat
[13] = blood cancer cell line MOLT-4, 72 hours, read-out: IC50, MOLT-4
[14] = blood cancer cell line Raji, 72 hours, read-out: IC50, Raji
[15] = blood cancer cell line Ramos (RA 1), 72 hours, read-out: IC50, Ramos (RA 1)
[16] = blood cancer cell line U-937, 72 hours, read-out: IC50, U-937
[17] = U138-MG, U-138 MG cell line, read-out: IC50, Brain cancer cell line U-138 MG
[18] = T98G cell line, read-out: IC50, Brain cancer cell line T98G
[19] = U-251 MG cell line, read-out: IC50, Brain cancer cell line U-251 MG
[20] = PC-3 cells, read-out: IC50, prostate cancer cell line PC-3

SMILES | IC50 [1, 5] [nM] | IC50 [1, 6] [nM] | IC50 [1, 7] [nM] | IC50 [1, 8] [nM] | IC50 [2, 9] [nM] | IC50 [2, 10] [nM] | IC50 [2, 11] [nM] | IC50 [2, 12] [nM] | IC50 [2, 13] [nM] | IC50 [2, 14] [nM] | IC50 [2, 15] [nM] | IC50 [2, 16] [nM] | IC50 [3, 17] [nM] | IC50 [3, 18] [nM] | IC50 [3, 19] [nM] | IC50 [1, 20] [nM] | IC50 [4] [nM]
CC(=O)c1c([S+]([O-])Cc2ccc(N)nc2)[nH]c2c(Br)ccc(Cl)c2c1=O (centres unmarked) [Compound 100, 3-acetyl-2-(((6-aminopyridin-3-yl)methyl)sulfinyl)-8-bromo-5-chloroquinolin-4(1H)-one] | > 2000 | > 2000 | > 2000 | > 2000 | > 2000 | > 2000 | > 2000 | > 2000 | > 2000 | > 2000 | > 2000 | > 2000 | > 10000 | > 10000 | > 2000 | – | > 10000
O=C(c1c([S+]([O-])Cc2ccc(SC(F)(F)F)cc2)[nH]c2c(Br)ccc(Cl)c2c1=O)C1CC1 (centres unmarked) [Compound 101, 8-bromo-5-chloro-3-(cyclopropanecarbonyl)-2-((4-((trifluoromethyl)thio)benzyl)sulfinyl)quinolin-4(1H)-one] | > 2000 | 1420 | 1340 | > 2000 | > 2000 | 1040 | > 2000 | 1010 | 1160 | 1790 | 1480 | > 2000 | > 2000 | > 10000 | > 2000 | > 2000 | > 10000
CC(=O)c1c([S+]([O-])Cc2ccc(NS(C)(=O)=O)cc2)[nH]c2c(Br)ccc(Cl)c2c1=O (centres unmarked) [Compound 103, N-(4-(((3-acetyl-8-bromo-5-chloro-4-oxo-1,4-dihydroquinolin-2-yl)sulfinyl)methyl)phenyl)methane-sulfonamide] | > 2000 | > 2000 | > 2000 | > 2000 | > 2000 | > 2000 | > 2000 | > 2000 | > 2000 | > 2000 | > 2000 | > 2000 | > 2000 | > 10000 | > 2000 | – | > 10000
COCCNc1ccc(C[S+]([O-])c2[nH]c3c(Br)ccc(Cl)c3c(=O)c2C(C)=O)cn1 (centres unmarked) [Compound 105, 3-acetyl-8-bromo-5-chloro-2-(((6-((2-methoxyethyl)amino)pyridin-3-yl)methyl)sulfinyl)quinolin-4(1H)-one] | > 2000 | > 2000 | > 2000 | > 2000 | > 2000 | > 2000 | > 2000 | > 2000 | > 2000 | > 2000 | > 2000 | > 2000 | > 10000 | > 10000 | > 2000 | – | > 10000
CC(=O)c1c([S+]([O-])Cc2cnc3[nH]ccc3c2)[nH]c2c(Br)ccc(Cl)c2c1=O (centres unmarked) [Compound 107, 2-(((1H-pyrrolo[2,3-b]pyridin-5-yl)methyl)sulfinyl)-3-acetyl-8-bromo-5-chloroquinolin-4(1H)-one] | > 2000 | > 2000 | > 2000 | > 2000 | > 2000 | > 2000 | > 2000 | > 2000 | > 2000 | > 2000 | > 2000 | > 2000 | > 10000 | > 10000 | > 2000 | – | > 10000

Now from value to compound, other results behind:

IC50 [1, 5] [nM] | IC50 [1, 6] [nM] | IC50 [1, 7] [nM] | IC50 [1, 8] [nM] | IC50 [2, 9] [nM] | IC50 [2, 10] [nM] | IC50 [2, 11] [nM] | IC50 [2, 12] [nM] | IC50 [2, 13] [nM] | IC50 [2, 14] [nM] | IC50 [2, 15] [nM] | IC50 [2, 16] [nM] | IC50 [3, 17] [nM] | IC50 [3, 18] [nM] | IC50 [3, 19] [nM] | IC50 [1, 20] [nM] | SMILES | IC50 [4] [nM]
1490 | 1120 | 1650 | > 2000 | 1010 | 1020 | 1870 | > 2000 | 940 | 1400 | 980 | > 2000 | 1240 | > 10000 | > 2000 | 1830 | CC(=O)c1c([S+]([O-])Cc2ccc(C(F)(F)F)nc2C)[nH]c2c(Br)ccc(Cl)c2c1=O (centres unmarked) [Compound 102, 3-acetyl-8-bromo-5-chloro-2-(((2-methyl-6-(trifluoromethyl)pyridin-3-yl)methyl)sulfinyl)quinolin-4(1H)-one] | > 10000
1550 | 1230 | 1640 | > 2000 | 950 | 1150 | > 2000 | > 2000 | 930 | 1440 | 1060 | > 2000 | 1470 | > 10000 | > 2000 | > 2000 | CC(=O)c1c([S+]([O-])Cc2ccc(Cl)nc2)[nH]c2c(Br)ccc(Cl)c2c1=O (centres unmarked) [Compound 104, 3-acetyl-8-bromo-5-chloro-2-(((6-chloropyridin-3-yl)methyl)sulfinyl)quinolin-4(1H)-one] | > 10000
> 2000 | > 2000 | > 2000 | > 2000 | > 2000 | > 2000 | > 2000 | > 2000 | > 2000 | > 2000 | > 2000 | > 2000 | > 10000 | > 10000 | > 2000 | – | CC(=O)c1c([S+]([O-])Cc2nonc2C)[nH]c2c(Br)ccc(Cl)c2c1=O (centres unmarked) [Compound 106, 3-acetyl-8-bromo-5-chloro-2-(((4-methyl-1,2,5-oxadiazol-3-yl)methyl)sulfinyl)quinolin-4(1H)-one] | > 10000
